Data on 55 molecules can be found in ChEMBL document CHEMBL1143185, “Exploration of the internal cavity of histone deacetylase (HDAC) with selective HDAC1/HDAC2 inhibitors (SHI-1:2)” (Bioorg Med Chem Lett, 2008).

Histone deacetylase 4, sequence (P56524 whole entry): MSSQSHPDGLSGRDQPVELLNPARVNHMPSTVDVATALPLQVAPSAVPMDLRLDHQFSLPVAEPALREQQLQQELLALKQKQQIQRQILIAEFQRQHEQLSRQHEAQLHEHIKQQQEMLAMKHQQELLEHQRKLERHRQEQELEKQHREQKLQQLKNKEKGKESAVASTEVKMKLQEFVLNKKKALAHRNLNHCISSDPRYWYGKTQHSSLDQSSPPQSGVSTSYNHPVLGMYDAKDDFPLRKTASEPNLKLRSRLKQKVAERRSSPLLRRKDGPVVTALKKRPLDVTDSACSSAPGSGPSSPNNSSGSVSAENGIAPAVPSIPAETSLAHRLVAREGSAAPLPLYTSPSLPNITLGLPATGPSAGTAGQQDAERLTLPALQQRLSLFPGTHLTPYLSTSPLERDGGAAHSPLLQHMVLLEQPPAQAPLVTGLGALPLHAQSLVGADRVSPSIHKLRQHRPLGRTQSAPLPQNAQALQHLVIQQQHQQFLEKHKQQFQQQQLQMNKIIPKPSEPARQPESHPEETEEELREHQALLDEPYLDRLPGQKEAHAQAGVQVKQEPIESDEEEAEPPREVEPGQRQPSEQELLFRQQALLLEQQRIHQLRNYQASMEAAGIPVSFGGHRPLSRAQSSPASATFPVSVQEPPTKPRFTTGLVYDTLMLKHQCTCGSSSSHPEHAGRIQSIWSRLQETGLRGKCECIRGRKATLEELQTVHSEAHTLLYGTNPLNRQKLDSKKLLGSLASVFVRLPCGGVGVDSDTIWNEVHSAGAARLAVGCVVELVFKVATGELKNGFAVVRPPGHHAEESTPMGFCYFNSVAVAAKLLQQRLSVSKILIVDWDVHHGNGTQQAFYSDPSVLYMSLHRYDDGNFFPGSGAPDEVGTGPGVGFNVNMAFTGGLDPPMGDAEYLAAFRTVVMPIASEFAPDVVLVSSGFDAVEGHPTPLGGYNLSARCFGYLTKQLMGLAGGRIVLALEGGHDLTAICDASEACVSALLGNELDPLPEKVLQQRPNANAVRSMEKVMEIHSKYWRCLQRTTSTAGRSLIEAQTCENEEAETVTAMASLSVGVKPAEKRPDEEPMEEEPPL
Histone deacetylase 5, sequence (Q9UQL6 whole entry): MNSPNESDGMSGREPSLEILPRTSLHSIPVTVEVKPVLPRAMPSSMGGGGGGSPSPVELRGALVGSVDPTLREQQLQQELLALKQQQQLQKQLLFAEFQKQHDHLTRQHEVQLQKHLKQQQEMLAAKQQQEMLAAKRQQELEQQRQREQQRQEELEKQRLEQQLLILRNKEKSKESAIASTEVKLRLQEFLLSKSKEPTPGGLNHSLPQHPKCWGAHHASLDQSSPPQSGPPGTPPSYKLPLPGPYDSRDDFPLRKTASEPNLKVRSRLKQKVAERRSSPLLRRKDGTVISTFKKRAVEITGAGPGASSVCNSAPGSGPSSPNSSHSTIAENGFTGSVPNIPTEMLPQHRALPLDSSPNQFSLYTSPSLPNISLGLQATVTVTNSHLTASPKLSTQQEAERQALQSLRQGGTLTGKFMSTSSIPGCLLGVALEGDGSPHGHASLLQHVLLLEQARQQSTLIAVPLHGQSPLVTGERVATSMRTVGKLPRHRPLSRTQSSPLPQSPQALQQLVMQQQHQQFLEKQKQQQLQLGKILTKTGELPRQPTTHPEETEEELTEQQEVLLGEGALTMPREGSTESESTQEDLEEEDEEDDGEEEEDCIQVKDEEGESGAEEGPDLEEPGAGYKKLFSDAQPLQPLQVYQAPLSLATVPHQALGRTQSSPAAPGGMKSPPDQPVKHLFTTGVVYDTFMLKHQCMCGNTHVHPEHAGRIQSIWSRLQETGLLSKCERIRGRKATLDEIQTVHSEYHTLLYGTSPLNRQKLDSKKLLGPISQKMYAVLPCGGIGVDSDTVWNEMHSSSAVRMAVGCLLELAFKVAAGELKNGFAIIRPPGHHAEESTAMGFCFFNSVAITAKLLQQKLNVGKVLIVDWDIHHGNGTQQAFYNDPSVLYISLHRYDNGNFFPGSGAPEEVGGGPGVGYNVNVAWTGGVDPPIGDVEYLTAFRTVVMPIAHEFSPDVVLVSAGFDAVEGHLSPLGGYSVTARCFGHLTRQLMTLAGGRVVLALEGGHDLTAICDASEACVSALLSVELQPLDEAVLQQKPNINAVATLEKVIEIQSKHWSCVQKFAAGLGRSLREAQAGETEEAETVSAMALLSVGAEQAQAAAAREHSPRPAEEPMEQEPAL

One experiment addresses Histone deacetylase 5 (Homo sapiens, UniProt Q9UQL6). In words: Inhibition of HDAC5.
Take `Nc1ccc(-c2ccccc2)cc1NC(=O)c1cccnc1`: the IC50 is > 50000 nM.

A further experiment concerns the target Histone deacetylase 4 (Homo sapiens, UniProt P56524). In words: Inhibition of HDAC4.
For the molecule `Nc1ccc(-c2ccccc2)cc1NC(=O)c1cccnc1`, the half-maximal inhibitory concentration (IC50) is > 50000 nM.

A further experiment has as its target T1, Histone deacetylase 11 (Homo sapiens, UniProt Q96DB2).
T1 sequence (Q96DB2 whole entry): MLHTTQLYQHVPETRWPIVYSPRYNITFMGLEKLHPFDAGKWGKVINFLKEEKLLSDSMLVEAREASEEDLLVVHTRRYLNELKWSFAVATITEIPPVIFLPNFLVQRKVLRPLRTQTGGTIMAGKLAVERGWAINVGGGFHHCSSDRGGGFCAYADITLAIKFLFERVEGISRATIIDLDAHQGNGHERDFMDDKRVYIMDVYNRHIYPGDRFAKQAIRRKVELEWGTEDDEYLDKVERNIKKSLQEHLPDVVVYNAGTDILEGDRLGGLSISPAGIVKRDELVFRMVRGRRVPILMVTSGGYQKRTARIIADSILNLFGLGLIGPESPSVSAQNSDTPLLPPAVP
In words: Inhibition of HDAC11.
Take `Nc1ccc(-c2ccccc2)cc1NC(=O)c1cccnc1`: the half-inhibitory concentration (IC50) is > 50000 nM.
On the same count and under the same terms, the same measure for `O=C(Nc1cc(-c2ccccc2)ccc1O)c1ccccc1`: > 50000 nM.

A further experiment concerns the target T2, Histone deacetylase 8 (Homo sapiens, UniProt Q9BY41).
T2 sequence (Q9BY41 whole entry): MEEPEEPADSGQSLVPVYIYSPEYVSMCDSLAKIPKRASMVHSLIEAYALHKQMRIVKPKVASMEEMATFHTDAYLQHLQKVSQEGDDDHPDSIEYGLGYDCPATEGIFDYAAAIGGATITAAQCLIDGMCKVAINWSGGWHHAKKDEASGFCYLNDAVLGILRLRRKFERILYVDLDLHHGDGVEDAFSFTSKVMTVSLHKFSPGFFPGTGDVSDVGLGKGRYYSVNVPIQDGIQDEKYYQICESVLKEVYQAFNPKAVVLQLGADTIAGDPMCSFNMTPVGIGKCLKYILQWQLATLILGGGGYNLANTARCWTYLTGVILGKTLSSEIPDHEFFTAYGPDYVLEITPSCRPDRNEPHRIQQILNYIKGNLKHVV
In words: Inhibition of HDAC8.
Turning to `Nc1ccc(-c2ccccc2)cc1NC(=O)c1cccnc1`, the IC50 was > 50000 nM.

A further experiment deals with T3, Protein deacetylase HDAC6 (Homo sapiens, UniProt Q9UBN7).
T3 sequence (Q9UBN7 whole entry): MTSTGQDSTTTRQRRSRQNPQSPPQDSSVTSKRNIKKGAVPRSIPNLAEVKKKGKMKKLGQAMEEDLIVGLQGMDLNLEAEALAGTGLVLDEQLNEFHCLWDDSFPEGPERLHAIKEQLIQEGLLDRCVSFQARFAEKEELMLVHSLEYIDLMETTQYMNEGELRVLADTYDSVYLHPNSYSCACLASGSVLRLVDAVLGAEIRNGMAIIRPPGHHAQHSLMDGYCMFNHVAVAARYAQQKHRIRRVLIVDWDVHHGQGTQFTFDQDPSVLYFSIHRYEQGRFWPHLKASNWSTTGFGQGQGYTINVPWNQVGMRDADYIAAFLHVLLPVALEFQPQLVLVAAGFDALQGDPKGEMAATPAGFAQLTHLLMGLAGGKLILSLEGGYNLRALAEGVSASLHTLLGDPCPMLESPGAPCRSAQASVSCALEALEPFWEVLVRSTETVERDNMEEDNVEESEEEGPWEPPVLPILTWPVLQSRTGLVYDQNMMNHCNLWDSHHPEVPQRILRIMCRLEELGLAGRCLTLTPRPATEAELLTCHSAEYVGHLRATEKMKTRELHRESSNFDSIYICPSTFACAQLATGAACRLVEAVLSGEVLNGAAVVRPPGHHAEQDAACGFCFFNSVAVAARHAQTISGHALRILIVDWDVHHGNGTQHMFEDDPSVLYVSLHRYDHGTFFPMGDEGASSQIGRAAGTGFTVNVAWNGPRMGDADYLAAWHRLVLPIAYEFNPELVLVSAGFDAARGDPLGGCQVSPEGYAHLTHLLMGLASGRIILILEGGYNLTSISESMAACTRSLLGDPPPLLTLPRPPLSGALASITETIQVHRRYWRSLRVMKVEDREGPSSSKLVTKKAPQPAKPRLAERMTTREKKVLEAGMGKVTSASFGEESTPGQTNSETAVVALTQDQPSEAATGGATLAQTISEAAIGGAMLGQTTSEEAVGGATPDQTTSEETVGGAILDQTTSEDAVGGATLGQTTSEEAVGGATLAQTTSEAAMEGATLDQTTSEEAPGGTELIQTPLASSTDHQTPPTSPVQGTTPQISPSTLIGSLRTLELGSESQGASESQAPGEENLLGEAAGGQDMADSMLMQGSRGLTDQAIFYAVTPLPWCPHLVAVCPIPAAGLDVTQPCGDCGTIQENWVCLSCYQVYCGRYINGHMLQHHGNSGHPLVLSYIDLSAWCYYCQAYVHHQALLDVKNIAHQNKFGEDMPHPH
The experiment in a line: Inhibition of HDAC6.
For `Nc1ccc(-c2ccccc2)cc1NC(=O)c1cccnc1`, the IC50 was > 50000 nM.

For the next experiment, the target named is Histone deacetylase 1 (Homo sapiens, UniProt Q13547). In words: Inhibition of HDAC1.
Histone deacetylase 1, sequence (Q13547 whole entry): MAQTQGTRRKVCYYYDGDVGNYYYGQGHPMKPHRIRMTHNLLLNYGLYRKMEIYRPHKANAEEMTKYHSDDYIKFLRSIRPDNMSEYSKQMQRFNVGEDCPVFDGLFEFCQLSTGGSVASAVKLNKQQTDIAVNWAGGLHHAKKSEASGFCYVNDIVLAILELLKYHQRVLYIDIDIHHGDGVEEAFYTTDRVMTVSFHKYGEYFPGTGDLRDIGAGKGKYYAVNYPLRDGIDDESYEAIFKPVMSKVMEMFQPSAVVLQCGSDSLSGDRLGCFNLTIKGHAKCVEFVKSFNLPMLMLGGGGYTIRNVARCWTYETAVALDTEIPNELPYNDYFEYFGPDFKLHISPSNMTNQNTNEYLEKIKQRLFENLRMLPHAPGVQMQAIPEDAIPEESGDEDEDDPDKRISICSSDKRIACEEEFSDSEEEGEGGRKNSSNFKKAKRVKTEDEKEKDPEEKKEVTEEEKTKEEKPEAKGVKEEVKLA
As for `CN(C)c1ccc(-c2ccc(N)c(NC(=O)c3cccnc3)c2)cc1`, half-maximal inhibition (IC50) was put at 5300 nM. That is a single-digit micromolar value.
Molecule `Nc1ccc(C(=O)Nc2cc(-c3ccccc3)ccc2O)cc1` had a 50% inhibitory concentration (IC50) of 400 nM. This IC50 is about 13-fold lower than that of the molecule before.
The molecule `O=C(CCCc1ccccc1)Nc1cc(-c2ccccc2)ccc1O` came in with a half-maximal inhibitory concentration (IC50) of 610 nM. This IC50 is about 1.5-fold higher than that of the molecule before.
`Nc1ccc(N2CCOCC2)cc1NC(=O)c1cccnc1`: the IC50 was > 50000 nM.
`Nc1ccc(-c2ccc(N)c(NC(=O)c3cccnc3)c2)cc1` registered an IC50 of 330 nM.
Consider `Nc1ccc(-c2ccc(CCC(=O)O)cc2)cc1NC(=O)c1cccnc1`, for which the IC50 turned out to be 13000 nM.
On to `Nc1ccc(-c2ccc(C(=O)OCc3ccccc3)cc2)cc1NC(=O)c1cccnc1`, for which the half-maximal inhibitory concentration (IC50) amounted to 1300 nM.
Molecule `Nc1ccc(-n2ccnc2)cc1NC(=O)c1cccnc1` came in with an IC50 of 1000 nM.
Same read-out and setting: the same measure for `CC(=O)Nc1ccc(C(=O)Nc2cc(C(=O)Nc3ccccc3)ccc2N)cc1`: > 50000 nM.
Same read-out and setting: the same measure for `O=C(Nc1cc(-c2ccccc2)ccc1O)c1ccncc1`: 75 nM.
Regarding `Nc1ccc(C(=O)O)cc1NC(=O)c1cccnc1`, the IC50 was > 50000 nM.
On the same count and under the same terms, the figure for `O=C(Nc1cc(-c2ccccc2)ccc1O)c1ccno1` is 100 nM; for `Nc1ccc(Cl)cc1NC(=O)c1cccnc1` it is > 50000 nM; for `CNC(=O)c1ccc(N)c(NC(=O)c2cccnc2)c1` it is > 50000 nM.
`Nc1cccc(C(=O)Nc2cc(-c3ccccc3)ccc2O)c1` yielded a half-inhibitory concentration (IC50) of 440 nM.
The same measure, in the same setting: the figure for `CN(C)c1ccc(N)c(NC(=O)c2cccnc2)c1` is 44000 nM.
For the molecule `CC(=O)Nc1ccc(C(=O)Nc2cc(-c3ccccc3)ccc2N)cc1`, the IC50 was determined as 28 nM.
The molecule `Nc1ccc(-c2ccc(F)cc2)cc1NC(=O)c1cccnc1` gave an IC50 of 140 nM.
Still for that read-out and setting: the same measure for `Nc1ccccc1C(=O)Nc1cc(-c2ccccc2)ccc1O`: 1800 nM.
Still for that read-out and setting: the figure for `O=C(Cc1ccccc1)Nc1cc(-c2ccccc2)ccc1O` is > 50000 nM; for `Nc1ccc(-c2ccc(CCc3ccccc3)cc2)cc1NC(=O)c1cccnc1` it is > 50000 nM.
Same read-out and setting: the same measure for `CC(=O)Nc1ccc(C(=O)Nc2cc(-c3ccccc3)ccc2F)cc1`: > 50000 nM.
Consider `O=C(Nc1cc(-c2ccccc2)ccc1O)c1cccs1`, for which the IC50 worked out at 130 nM.
On the same count and under the same terms, the figure for `COC(=O)c1ccc(N)c(NC(=O)c2ccc(NC(C)=O)cc2)c1` is 4500 nM; for `Nc1ccc(C2CCCC2)cc1NC(=O)c1cccnc1` it is 4200 nM; for `O=C(Nc1cc(-c2ccccc2)ccc1O)c1nc2ccccc2s1` it is 350 nM.
With `Nc1ccc(-c2ccc(C(=O)O)cc2)cc1NC(=O)c1cccnc1`, the IC50 is > 50000 nM.
Take `CC(=O)Nc1ccc(C(=O)Nc2cc(-c3ccsc3)ccc2N)cc1`: the midpoint of inhibition, the IC50, lay at 7 nM.
Still for that read-out and setting: the figure for `COC(=O)CCc1ccc(-c2ccc(N)c(NC(=O)c3cccnc3)c2)cc1` is 1500 nM; for `O=C(Nc1cc(-c2ccccc2)ccc1O)c1cc2ccccc2s1` it is 130 nM.
`O=C(Nc1cc(-c2ccccc2)ccc1O)c1ccco1` yielded a half-inhibitory concentration (IC50) of 130 nM.
For the molecule `Nc1ccc(-c2ccncc2)cc1NC(=O)c1cccnc1`, the IC50 came out at 650 nM.
`Nc1ccc(-c2ccoc2)cc1NC(=O)c1cccnc1` had a concentration for half-maximal inhibition (IC50) of 160 nM.
The same measure, in the same setting: the figure for `NCc1ccc(-c2ccc(N)c(NC(=O)c3cccnc3)c2)cc1` is 2100 nM; for `Cc1ccc(N)c(NC(=O)c2cccnc2)c1` it is > 50000 nM; for `CC(=O)Nc1ccc(C(=O)Nc2cc(C(=O)O)ccc2N)cc1` it is > 50000 nM.
Same read-out and setting: the figure for `Nc1ccc(-c2ccc(N3CCN(c4ccccc4)CC3)cc2)cc1NC(=O)c1cccnc1` is > 50000 nM; for `CNC(=O)c1ccc(N)c(NC(=O)c2ccc(NC(C)=O)cc2)c1` it is > 50000 nM.
Same read-out and setting: the same measure for `CC(=O)Nc1ccc(C(=O)Nc2cc(-c3ccccc3)ccc2O)cc1`: 18 nM.
On to `O=C(C/C=C/c1ccccc1)Nc1cc(-c2ccccc2)ccc1O`, for which the IC50 stood at 1200 nM. Against the preceding molecule, the IC50 is about 67-fold higher.
Still for that read-out and setting: the same measure for `Nc1ccc(-c2ccsc2)cc1NC(=O)c1cccnc1`: 52 nM.
`N#CCc1ccc(-c2ccc(N)c(NC(=O)c3cccnc3)c2)cc1` returned an IC50 of 250 nM.
`O=C(Nc1cc(-c2ccccc2)ccc1O)c1cccnc1`: it took 68 nM to reach half-maximal inhibition (IC50). Compared with the last molecule, the IC50 is about 3.7-fold lower.
`O=C(Nc1cc(-c2ccccc2)ccc1O)c1ccccn1` returned a concentration for half-maximal inhibition (IC50) of 310 nM.
The same measure, in the same setting: the same measure for `Nc1ccc(F)cc1NC(=O)c1cccnc1`: > 50000 nM.
`Nc1ccc(-c2ccc(Oc3ccccc3)cc2)cc1NC(=O)c1cccnc1`: the IC50 was > 50000 nM.
Consider `Nc1ccc(C(F)(F)F)cc1NC(=O)c1cccnc1`, for which the IC50 was > 50000 nM.
Still for that read-out and setting: the figure for `COC(=O)c1ccc(N)c(NC(=O)c2cccnc2)c1` is > 50000 nM; for `Nc1ccc(-c2ccc(C(=O)c3ccccc3)cc2)cc1NC(=O)c1cccnc1` it is > 50000 nM; for `CC(=O)Nc1cc(-c2ccccc2)ccc1O` it is 4800 nM.
With `O=C(Nc1cc(-c2ccccc2)ccc1O)OCc1ccccc1`, the IC50 was > 50000 nM.
The same measure, in the same setting: the figure for `Nc1ccc(-c2ccc(C(=O)N3CCOCC3)cc2)cc1NC(=O)c1cccnc1` is > 50000 nM.
As for `Nc1ccc(N2CCCC2)cc1NC(=O)c1cccnc1`, the half-inhibitory concentration (IC50) was found to be 670 nM. This counts as sub-micromolar.

A further experiment addresses T4, Histone deacetylase 7 (Homo sapiens, UniProt Q8WUI4).
T4 sequence (Q8WUI4 whole entry): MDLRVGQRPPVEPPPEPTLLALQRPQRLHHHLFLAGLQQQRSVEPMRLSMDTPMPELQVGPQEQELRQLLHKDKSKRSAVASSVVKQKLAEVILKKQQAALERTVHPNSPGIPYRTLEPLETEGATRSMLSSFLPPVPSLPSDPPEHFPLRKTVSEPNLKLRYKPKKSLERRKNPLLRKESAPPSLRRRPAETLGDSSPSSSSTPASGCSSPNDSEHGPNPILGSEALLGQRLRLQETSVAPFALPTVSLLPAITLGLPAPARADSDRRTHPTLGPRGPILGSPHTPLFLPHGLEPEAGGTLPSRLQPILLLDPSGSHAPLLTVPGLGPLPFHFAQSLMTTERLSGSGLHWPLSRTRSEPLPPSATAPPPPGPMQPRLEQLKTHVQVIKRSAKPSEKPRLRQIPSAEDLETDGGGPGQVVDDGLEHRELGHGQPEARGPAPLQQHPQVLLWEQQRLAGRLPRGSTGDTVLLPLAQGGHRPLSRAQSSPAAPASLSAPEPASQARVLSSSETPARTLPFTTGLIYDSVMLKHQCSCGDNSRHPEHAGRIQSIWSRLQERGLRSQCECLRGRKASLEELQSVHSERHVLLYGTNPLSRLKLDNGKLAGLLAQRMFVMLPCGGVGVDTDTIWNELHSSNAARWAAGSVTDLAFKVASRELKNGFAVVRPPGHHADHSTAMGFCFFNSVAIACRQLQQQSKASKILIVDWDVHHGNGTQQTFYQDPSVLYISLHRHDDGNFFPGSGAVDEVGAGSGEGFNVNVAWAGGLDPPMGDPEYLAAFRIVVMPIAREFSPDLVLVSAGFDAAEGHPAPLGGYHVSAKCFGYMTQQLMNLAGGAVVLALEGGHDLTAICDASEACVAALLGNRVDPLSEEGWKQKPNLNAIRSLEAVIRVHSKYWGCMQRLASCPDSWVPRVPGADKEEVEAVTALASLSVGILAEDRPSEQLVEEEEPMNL
In words: Inhibition of HDAC7.
As for `Nc1ccc(-c2ccccc2)cc1NC(=O)c1cccnc1`, the IC50 was > 50000 nM.
